Test results as given in patent US20100041903A1, “Ozonized Surfactant” (ERC TECHNOLOGY INC., priority 2006, published 2010).

Tests used:
[1] = Surface-active property test (contact angle on polyvinyl chloride plate); type: physicochemical; settings: Surfactant not subjected to ozone treatment; 1 wt % aqueous solution on polyvinyl chloride plate
Method: The surface-active properties of ozonized surfactants were determined in the following manner. 1 wt % of aqueous solutions of surfactants (Tween 80, polyethylene glycol 10 oleyl ether, and polyethylene glycol 20 oleyl ether (manufactured by Wako Pure Chemical Industries, Ltd.)) were prepared, and each of the solutions was dropped on a polyvinyl chloride plate to measure a contact angle (θ) using a contact angle meter CA-VP (manufactured by Kyowa Interface Science Co., Ltd.). The same measurement was carried out for the ozonized surfactants obtained in Examples 1, 2 and 4.

[2] = system: Cladosporium cladosporioides; assay: Minimum inhibitory concentration test; type: cell-based; settings: 96 H, 25° C., Sabouraud medium, 1 × 10^5/mL
Excerpt: (§1) In order to check the antibacterial and antifungal performance of the ozonized surfactant according to the present invention, bacteriostatic and bactericidal effects of the ozonized surfactant against five kinds of microorganisms were examined. The five kinds of target microorganisms were Staphyrococcus aureus as a prokaryotic gram-positive bacterium, Escherichia coli as a prokaryotic gram-negative bacterium, Saccharomyces cerevisiae and Trichophyton mentagrophytes as fungi which are eukaryotic microorganisms, and Cladosporium cladosporioides. One loopful of each strain was inoculated in a medium optimum for the strain, and cultured under culture conditions optimum for the strain to prepare a cell suspension for inoculation. […] 9 mL of each medium shown in Table 1 was dispensed into L-shaped test tubes for a biophotorecorder, and was then sterilized by steam. […] 0.1 mL of the cell suspension for inoculation was inoculated into the graduated dilution series to be tested (the initial number of cells of each microorganism is shown in Table 1). […] In the following tests, they were sterilized in the same manner. [table] […] Another graduated dilution series was prepared between the temporary minimum inhibitory concentration and the concentration of the ozonized surfactant nearest to the temporary minimum inhibitory concentration, at which turbidity occurred. Then, the same operation as described above was again carried out. […] It is to be noted that this MIC test against these five kinds of microorganisms was carried out also using, as a control, the surfactant solution not subjected to ozone treatment.

Escherichia coli = assay: Minimum inhibitory concentration test; type: cell-based; settings: 24 H, 30° C., Bouillon liquid medium, 1 × 10^7/mL
Excerpt: as §1

Saccharomyces cerevisiae = assay: Minimum inhibitory concentration test; type: cell-based; settings: 48 H, 28° C., YM liquid medium, 1 × 10^6/mL
Excerpt: as §1

Staphyrococcus aureus = assay: Minimum inhibitory concentration test; type: cell-based; settings: 24 H, 37° C., Bouillon liquid medium, 1 × 10^7/mL
Excerpt: as §1

[3] = system: Trichophyton mentagrophytes; assay: Minimum inhibitory concentration test; type: cell-based; settings: 96 H, 25° C., Sabouraud medium, 1 × 10^5/mL
Excerpt: as §1

For “polyethylene glycol 20 oleyl ether [Polyethylene glycol (20) oleyl ether]”, the “Contact angle (θ)” value [1] was 59.4 degree (°).

For “Polyethylene glycol 10 oleyl ether [Polyethylene glycol (10) oleyl ether]”, the minimum inhibitory concentration [2] was >1% by weight, the minimum inhibitory concentration (Escherichia coli) was >1% by weight and the minimum inhibitory concentration (Saccharomyces cerevisiae) was >1% by weight. The minimum inhibitory concentration (Staphyrococcus aureus) was >1% by weight, the minimum inhibitory concentration [3] was >1% by weight and the “Contact angle (θ)” value [1] was 51.9 degree (°).
